Laboratory results from patent US10501426B1, “Synthesis of thiazole derivative as anticancer and anti-antibiotics resistant bacteria agent” (priority 2019, dated 2019).

What was measured:
Assay in all cases: Antibiotic susceptibility testing, Vitek System
Format in all cases: cell-based, Staphylococcus epidermidis
S. epidermidis S1 = test system: S. epidermidis S1
Method: (§1) Compound 6, synthesized as above, was evaluated as an antimicrobial agent against selected antibiotics resistant Staphylococcus epidermidis. The bacterial strains were obtained from Laboratory (2b56) of the Botany and Microbiology Department, College of Science, King Saud University, Riyadh. The bacterial strains were isolated from the skin of healthy students and identified by an automated antibiotic susceptibility testing system, Vitek System (BioMerieux, France).

S. epidermidis S2 = test system: S. epidermidis S2
Method: as §1

S. epidermidis S3 = test system: S. epidermidis S3
Method: as §1
Note: key: S = susceptible; R = Resistant; I = intermediate.

Row | Molecule | susceptibility to standard antibiotics (S. epidermidis S1) | susceptibility to standard antibiotics (S. epidermidis S2) | susceptibility to standard antibiotics (S. epidermidis S3)
1 | O=C(O)c1cn(C2CC2)c2cc(N3CCNCC3)c(F)cc2c1=O [Ciprofloxacin] | S | R | R
2 | CCC[C@@H]1C[C@@H](C(=O)N[C@@H]([C@H]2O[C@H](SC)[C@H](O)[C@@H](O)[C@H]2O)[C@H](C)Cl)N(C)C1 [Clindamycin] | S | R | R
3 | CCCCCCCCCC(=O)N[C@@H](Cc1c[nH]c2ccccc12)C(=O)N[C@H](CC(N)=O)C(=O)N[C@@H](CC(=O)O)C(=O)N[C@@H]1C(=O)NCC(=O)N[C@@H](CCCN)C(=O)N[C@@H](CC(=O)O)C(=O)N[C@H](C)C(=O)N[C@@H](CC(=O)O)C(=O)NCC(=O)N[C@H](CO)C(=O)N[C@@H]([C@H](C)CC(=O)O)C(=O)N[C@@H](CC(=O)c2ccccc2N)C(=O)O[C@@H]1C [Daptomycin] | S | R | R
4 | CC[C@H]1OC(=O)[C@H](C)[C@@H](O[C@H]2C[C@@](C)(OC)[C@@H](O)[C@H](C)O2)[C@H](C)[C@@H](O[C@@H]2O[C@H](C)C[C@H](N(C)C)[C@H]2O)[C@](C)(O)C[C@@H](C)C(=O)[C@H](C)[C@@H](O)[C@]1(C)O [Erythromycin] | R | R | R
5 | C[C@@H]1O[C@@H]1P(=O)(O)O [Fosfomycin] | S | S | S
6 | CC(=O)O[C@H]1C[C@@]2(C)[C@@H](C[C@@H](O)[C@H]3[C@@]4(C)CC[C@@H](O)[C@@H](C)[C@@H]4CC[C@@]32C)/C1=C(\CCC=C(C)C)C(=O)O [Fusidic Acid] | S | R | R
7 | C[C@H]1COc2c(N3CCN(C)CC3)c(F)cc3c(=O)c(C(=O)O)cn1c23 [Levofloxacin] | S | R | S
8 | CC(=O)NC[C@H]1CN(c2ccc(N3CCOCC3)c(F)c2)C(=O)O1 [Linezolid] | S | R | R
9 | C[C@@H](O)[C@H]1C(=O)N2C(C(=O)O)=C(SCCN=CN)C[C@H]12 [Lmipenem] | S | S | S
10 | COc1c(N2C[C@@H]3CCCN[C@@H]3C2)c(F)cc2c(=O)c(C(=O)O)cn(C3CC3)c12 [Moxifloxacin] | S | R | S
11 | C/C(=C\C(=O)OCCCCCCCCC(=O)O)C[C@@H]1OC[C@H](C[C@@H]2O[C@H]2[C@@H](C)[C@H](C)O)[C@@H](O)[C@H]1O [Mupirocin] | S | R | R
12 | Cc1onc(-c2ccccc2)c1C(=O)N[C@@H]1C(=O)N2[C@@H]1SC(C)(C)[C@@H]2C(=O)O [Oxacillin] | S | R | R
13 | CO[C@H]1/C=C/O[C@@]2(C)Oc3c(C)c(O)c4c(O)c(c(/C=N/N5CCN(C)CC5)c(O)c4c3C2=O)NC(=O)/C(C)=C\C=C\[C@H](C)[C@H](O)[C@@H](C)[C@@H](O)[C@@H](C)[C@H](OC(C)=O)[C@@H]1C [Rifampin] | S | R | R
14 | CN(C)[C@@H]1C(O)=C(C(N)=O)C(=O)[C@@]2(O)C(O)=C3C(=O)c4c(O)cccc4[C@@](C)(O)[C@H]3C[C@@H]12 [Tetracycline] | S | S | S
15 | CN[C@H](CC(C)C)C(=O)N[C@H]1C(=O)N[C@@H](CC(N)=O)C(=O)N[C@H]2C(=O)N[C@H]3C(=O)N[C@H](C(=O)N[C@H](C(=O)O)c4cc(O)cc(O)c4-c4cc3ccc4O)[C@H](O)c3ccc(c(Cl)c3)Oc3cc2cc(c3O[C@@H]2O[C@H](CO)[C@@H](O)[C@H](O)[C@H]2O[C@H]2C[C@](C)(N)[C@H](O)[C@H](C)O2)Oc2ccc(cc2Cl)[C@H]1O [Vancomycin] | S | R | S
16 | Gentamicin | S | S | S
17 | Teicoplanin | S | R | S
